Reference: patent US20220000157A1, “MOUTH-COATING FEEL ENHANCER” (AJINOMOTO CO., INC., priority 2019, published 2022)

Test system: panel of 3 experts
Assay: Sensory evaluation of strength of mouth-coating feel of mayonnaise, single compounds in ethanol (Experimental Example 14)
Type: in vivo
Settings: for mouth-coating feel (in words): Table 20
Text: as a Positive Control, General Commercially Available mayonnaise (manufactured by Ajinomoto Co., Inc., trade name “Pure Select (registered trade mark) mayonnaise”, oil and fat content: 73%) added with ethanol (manufactured by Japan Alcohol Corporation) (0.001 wt %) was used.
As a negative control, commercially available mayonnaise (manufactured by Ajinomoto Co., Inc., trade name “Pure Select (registered trade mark) KOKUUMA (registered trade mark) 65% Calorie Cut”, oil and fat content: 23%) with a smaller oil and fat content as compared with positive control mayonnaise and added with ethanol (manufactured by Japan Alcohol Corporation) (0.001 wt %) was used.
Given amounts of β-caryophyllene, β-caryophyllene oxide, clovanediol, (1R,3Z,5R,9S)-4,11,11-trimethyl-8-methylenebicyclo[7.2.0]undec-3-en-5-ol, (1R,4R,5R,9S)-4,11,11-trimethyl-8-methylenebicyclo[7.2.0]undecane-4,5-diol, clovanediol-3-monoacetate, clovanediol diacetate, clovanediol-3-monoisovalerate, α-pinene, α-pinene oxide, limonene, limonene oxide, α-terpineol (clovanediol, (1R,3Z,5R,9S)-4,11,11-trimethyl-8-methylenebicyclo[7.2.0]undec-3-en-5-ol, (1R,4R,5R,9S)-4,11,11-trimethyl-8-methylenebicyclo[7.2.0]undecane-4,5-diol, clovanediol-3-monoacetate, clovanediol diacetate and clovanediol-3-monoisovalerate used were those obtained in the above-mentioned Synthetic Examples and others used were manufactured by Sigma-Aldrich) were dissolved in ethanol (manufactured by Japan Alcohol Corporation), the ethanol (0.001 wt %) was added to the commercially available mayonnaise used for preparation of the above-mentioned negative control, and the obtained mayonnaise was used as an evaluation sample. The amounts of β-caryophyllene, β-caryophyllene oxide, clovanediol, (1R,3Z,5R,9S)-4,11,11-trimethyl-8-methylenebicyclo[7.2.0]undec-3-en-5-ol, (1R,4R,5R,9S)-4,11,11-trimethyl-8-methylenebicyclo[7.2.0]undecane-4,5-diol, clovanediol-3-monoacetate, clovanediol diacetate, clovanediol-3-monoisovalerate, α-pinene, α-pinene oxide, limonene, limonene oxide, α-terpineol dissolved in ethanol were each adjusted to fall within the range of 0.01-1 ppm with respect to mayonnaise, as shown in the following Table 20.
For the evaluation of the strength of the mouth-coating feel, a panel of 3 experts ate each mayonnaise of positive control, negative control and evaluation sample, and graded the evaluation samples in 0.1 point increments in the range of 0.0 to 5.0 points, with the positive control being 5.0 points and the negative control being 0.0 point.

[1] = concentration 1 ppm with respect to mayonnaise
[2] = concentration 0.01 ppm with respect to mayonnaise
[3] = concentration 0.1 ppm with respect to mayonnaise

Row | Compound | mouth-coating feel (in words) | strength of mouth-coating feel [1] [points] | strength of mouth-coating feel [2] [points] | strength of mouth-coating feel [3] [points]
1 | C=C1CC[C@@H](O)/C(C)=C\C[C@@H]2[C@@H]1CC2(C)C [(1R,3Z,5R,9S)-4,11,11-trimethyl-8-methylenebicyclo[7.2.0]undec-3-en-5-ol] | enhanced | 3.0 |  | 
2 | C=C1CC[C@@H](O)[C@](C)(O)CC[C@@H]2[C@@H]1CC2(C)C [(1R,4R,5R,9S)-4,11,11-trimethyl-8-methylenebicyclo[7.2.0]undecane-4,5-diol] | enhanced | 3.3 |  | 
3 | CC(=O)O[C@H]1CC(C)(C)[C@@H]2CC[C@]3(C)C[C@]12CC[C@H]3OC(C)=O [clovanediol diacetate] | enhanced | 3.2 |  | 
4 | CC(=O)O[C@H]1CC(C)(C)[C@@H]2CC[C@]3(C)C[C@]12CC[C@H]3O [clovanediol-3-monoacetate] | enhanced | 3.0 |  | 
5 | CC(C)CC(=O)O[C@H]1CC(C)(C)[C@@H]2CC[C@]3(C)C[C@]12CC[C@H]3O [clovanediol-3-monoisovalerate] | enhanced | 3.2 |  | 
6 | CC1(C)C[C@H](O)[C@]23CC[C@@H](O)[C@](C)(CC[C@@H]12)C3 [clovanediol] | enhanced | 3.1 |  | 
7 | C=C(C)C1CCC2(C)OC2C1 (stereo not drawn) [limonene oxide] | enhanced | 2.8 |  | 
8 | C=C(C)[C@H]1CC=C(C)CC1 [limonene, reference compound] |  | 0.0 |  | 
9 | CC1(C)C2CC3OC3(C)C1C2 (stereo not drawn) [α-pinene oxide] | enhanced | 3.3 |  | 
10 | CC1=CCC2CC1C2(C)C (stereo not drawn) [α-pinene, reference compound] |  | 0.6 |  | 
11 | CC1=CCC(C(C)(C)O)CC1 (stereo not drawn) [α-terpineol] | enhanced | 2.0 |  | 
12 | C=C1CC[C@H]2O[C@]2(C)CC[C@@H]2[C@@H]1CC2(C)C [β-caryophyllene oxide] | enhanced | 3.6 | 1.5 | 2.6
13 | C=C1CC/C=C(\C)CC[C@@H]2[C@@H]1CC2(C)C [β-caryophyllene, reference compound] |  | 0.1 | 0.0 | 0.0
